Read-outs that look alike come from different tables or passages of the source.
What was measured:
Assay in all cases: microbe, parasite or virus in culture
Settings in all cases: Hepatitis C virus
[1] = test system: stable HCV 1a RLuc replicon cells (genotype 1a H77 replicon); format: cell-based
Procedure: (§1) Evaluation of Cell-Based Anti-HCV Activity:
(§2) Antiviral potency (EC50) was determined using a Renilla luciferase (RLuc)-based HCV replicon reporter assay. […] To perform the assay for genotype 2a (with M31 present in NS5A) or 2b, NS5A chimeric genotype 2a JFH-1 replicons that encodes a RLuc-Neo reporter and either genotype 2a J6 strain NS5A gene or genotype 2b MD2b-1 strain NS5A gene (both with M31 present) respectively, were either transiently transfected (t) into Huh-Lunet cells or were established as stably replicating replicon cells (s) is provided. Either cells were dispensed into 384-well plates for EC50 assays. To perform the assay for genotype 3 and 4, NS5A chimeric genotype 1b Con1 replicons that encodes a Pi-RLuc reporter and either genotype 3a S52 strain NS5A gene or genotype 4a ED43 strain NS5A gene respectively, were transiently transfected (t) into Huh-Lunet cells, which were subsequently dispensed into 384-well plates. Compounds were dissolved in DMSO at a concentration of 10 mM and diluted in DMSO either manually or using an automated pipeting instrument. Serially 3-fold diluted compounds were either manually mixed with cell culture media and added to the seeded cells or directly added to the cells using an automated instrument. […] 72 hours later, cells were lysed and Renilla luciferase activity quantified as recommended by the manufacturer (Promega-Madison, Wis.). Non-linear regression was performed to calculate EC50 values.

[2] = test system: stable HCV 2a JFH-1 Rluc replicon cells (L31 present in NS5A); format: cell-based
[3] = test system: NS5A chimeric genotype 2a JFH-1 replicon with genotype 2b MD2b-1 strain NS5A gene (M31 present); format: cell-based, HCV
Procedure: as §1, §2

[4] = test system: NS5A chimeric genotype 2a JFH-1 replicon with genotype 2a J6 strain NS5A gene (M31 present); format: cell-based, HCV
Procedure: as §1, §2

[5] = test system: NS5A chimeric genotype 1b Con1 replicon with genotype 4a ED43 strain NS5A gene; format: cell-based, HCV

SMILES	EC50 ([1]; read-out: 1a)	EC50 ([1]; read-out: 1a (nM))	EC50 ([2]; read-out: 2a JFH)	EC50 ([2]; read-out: 2a JFH (nM))	EC50 ([3]; read-out: 2b)	EC50 ([3]; read-out: 2b (s) (nM))	EC50 ([3]; read-out: 2b (t) (nM))	EC50 ([4]; read-out: 2a J6)	EC50 ([4]; read-out: 2a Jb (t) (nM))	EC50 ([5]; read-out: 4a)	EC50 ([5]; read-out: 4a (s) (nM))	EC50 ([4]; read-out: 2a J6 (s) (nM))	EC50 ([5]; read-out: 4a (t) (nM))
COC(=O)N[C@H](C(=O)N1[C@@H](C)CC[C@H]1c1ncc(-c2ccc3c(c2)COc2cc4c(ccc5nc([C@@H]6CCCN6C(=O)[C@@H](NC(=O)OC)C6CCOCC6)[nH]c54)cc2-3)[nH]1)C(C)C [Compound 602]	< 1 nM	0.025 nM	< 1 nM	0.01 nM	< 1 nM	0.036 nM	0.036 nM	< 1 nM	0.053 nM	< 1 nM	0.013 nM	–	–
CC[C@@H](C)[C@H](NC(=O)OC)C(=O)N1C[C@@H](COC)C[C@H]1c1nc2ccc3cc4c(cc3c2[nH]1)OCc1cc(-c2cnc([C@@H]3CC[C@H](C)N3C(=O)[C@@H](NC(=O)OC)[C@H](C)CC)[nH]2)ccc1-4 [Compound 643]	< 1 nM	0.015 nM	< 1 nM	0.013 nM	< 1 nM	–	0.607 nM	< 1 nM	0.206 nM	–	–	–	–
COC[C@H]1C[C@@H](c2nc3ccc4cc5c(cc4c3[nH]2)OCc2cc(-c3ccc4nc([C@@H]6CCCN6C(=O)[C@@H](NC(=O)OC)C(C)C)[nH]c4c3)ccc2-5)N(C(=O)[C@H](NC(=O)OC)c2ccccc2)C1 [Example MS]	< 1 nM	0.008 nM	< 1 nM	0.005 nM	> 5 nM	9.56 nM	–	> 5 nM	–	< 1 nM	0.02 nM	15.6 nM	0.014 nM
COC(=O)N[C@H](C(=O)N1[C@@H](C)CC[C@H]1c1ncc(-c2ccc3c(c2)COc2cc4c(ccc5nc([C@@H]6CCCN6C(=O)[C@H](N)c6ccccc6)[nH]c54)cc2-3)[nH]1)C(C)C [Example NR, Methyl [(2S)-1-{(2S,5S)-2-[5-(2-{(2S)-1-[(2R)-2-amino-2-phenylacetyl]pyrrolidin-2-yl}-1,11-dihydroisochromeno[4′,3′:6,7]naphtho[1,2-d]imidazol-9-yl)-1H-imidazol-2-yl]-5-methylpyrrolidin-1-yl}-3-methyl-1-oxobutan-2-yl]carbamate]	< 1 nM	0.026 nM	< 1 nM	0.006 nM	< 1 nM	0.017 nM	0.017 nM	< 1 nM	0.118 nM	< 1 nM	0.007 nM	–	–
CC[C@H](C)[C@H](NC(=O)OC)C(=O)N1C[C@@H](COC)C[C@H]1c1ncc(-c2ccc3c(c2)COc2cc4c(ccc5nc([C@@H]6CC[C@H](C)N6C(=O)[C@@H](NC(=O)OC)C(C)C)[nH]c54)cc2-3)[nH]1 [Example OF, Methyl {(2S,3S)-1-[(2S,4S)-2-(5-{2-[(2S,5S)-1-{(2S)-2-[(methoxycarbonyl)amino]-3-methylbutanoyl}-5-methylpyrrolidin-2-yl]-1,11-dihydroisochromeno[4′,3′:6,7]naphtho[1,2-d]imidazol-9-yl}-1H-imidazol-2-yl)-4-(methoxymethyl)pyrrolidin-1-yl]-3-methyl-1-oxopentan-2-yl}carbamate]	< 1 nM	0.01 nM	< 1 nM	0.008 nM	< 1 nM	–	0.196 nM	< 1 nM	0.445 nM	–	–	–	–
